Tests used:
Enterococcus = test: MIC by Agar Doubling Dilution Method, clinical isolates; type: cell-based, Enterococcus faecalis; details: Enterococcus clinical strains
Procedure: (§1) (3) Culture Solution • MH Broth Culture Solution: 25 g was added into […] distilled water, heat to dissolve, subpackaged, autoclaved at 116° C. for 20 minutes, and MH Solid Culture Medium, 36 g was added into 1000 ml distilled water, autoclaved at 116° C. for 20 minutes, used for drug sensitive test of Gram-positive and negative aerobic bacteria. • Blood culture solution for Enterococcus faecalis, which was prepared by adding defibration rabbit blood into the MH culture solution by 5-10% and cultured at 37° C. in 5% CO2 for 24 hours. 2. Experimental Methods (1) The Measurement of Minimum Inhibitory Concentration (MIC) • The Minimum Inhibitory Concentration (MIC) of PMC-SA1 was measured by Agar Doubling Dilution Method. The bacterium was inoculated on the surface of agar plate containing different concentration of drugs by multipoint inoculate instrument (Deneley A400). The bacterial content per point was 10^5 CFU/ml. After incubated at 37° C. for 18-24 hours, the result can be observed. The least concentration of drugs in plate culture solution without bacterium growing was Minimum Inhibitory Concentration (MIC) of the drug to the said bacteria. 3. Results

Enterococcus ATCC 700802 [1] = test: MIC against the infecting strain (Table 2); type: cell-based, Enterococcus faecalis; details: ATCC700802
Procedure: as §1

[2] = system: Staphylococcus epidermidis (MSSE strain); test: MIC by Agar Doubling Dilution Method, clinical isolates; type: cell-based; details: MSSE clinical strains
Procedure: as §1

Baumanii = test: as above; type: cell-based; details: Baumanii clinical strains
Procedure: as §1

[3] = system: Staphylococcus aureus (MRSA); test: as above; type: cell-based; details: MRSA clinical strains
Procedure: as §1

E. coli = test: as above; type: cell-based; details: E. coli clinical strains
Procedure: as §1

[4] = system: Staphylococcus epidermidis (MRSE); test: as above; type: cell-based; details: MRSE clinical strains
Procedure: as §1

[5] = system: Staphylococcus aureus (MSSA); test: as above; type: cell-based; details: MSSA clinical strains
Procedure: as §1

[6] = system: Staphylococcus aureus ATCC 29213; test: Protection test in vivo (intravenous injection) of infected mice; set-up: species or system Kungming mice; details: mice, infected with 4.6 × 10^5 cfu/ml i.p., drug once intravenous
Procedure: (§2) The drugs used in this embodiment were same with that used in embodiment 4.
(§3) The above drugs were dissolved and diluted by sterilized water, and the injection concentrations of each drug were 10 mg/kg, 5 mg/kg and 2.5 mg/kg.
(§4) After given intraperitoneal injection of fatal dose of above-mentioned bacteria, the mice of each drug experimental group respectively were given once intravenous injection of the drug by 10 mg, 5 mg, 2.5 mg/kg. The results were observed per 24 hours for 7-14 days. The positive result is mice's death.

[7] = system: Staphylococcus aureus MRSA BAA-42; test: as above; set-up: species or system Kungming mice; details: mice, infected with 6.5 × 10^5 cfu/ml i.p., drug once intravenous
Procedure: as §2, §3, §4

E. coli 02-1-65 [8] = test: as above; set-up: species or system Kungming mice; details: mice, infected with 3.8 × 10^5 cfu/ml i.p., drug once intravenous
Procedure: as §2, §3, §4

Enterococcus ATCC 700802 [9] = test: as above; set-up: species or system Kungming mice; details: mice, infected with 7.0 × 10^6 cfu/ml i.p., drug once intravenous
Procedure: as §2, §3, §4

[10] = system: Staphylococcus aureus ATCC 29213; test: MIC against the infecting strain (Table 2); type: cell-based; details: ATCC29213
Procedure: as §1

[11] = system: Staphylococcus aureus MRSA BAA-42; test: MIC against the infecting strain (Table 2); type: cell-based; details: Staphylococcus aureus MRSA BAA-42
Procedure: as §1

E. coli 02-1-65 [12] = test: MIC against the infecting strain (Table 2); type: cell-based; details: E. coli 02-1-65
Procedure: as §1

[13] = system: methicillin-resistant Staphylococcus aureus ATCC BAA-42; test: Bacteria growth curve (A595 nm), comparison of the novel antibiotics; type: cell-based; details: drug 5 μg/ml, 37° C., A595 nm per hour
Procedure: The following experiment was set for comparing bacteriostasis effects of 6 kinds of the novel antibiotics. The experimental bacteriaum was United States Standard Strain methicillin-resistant Staphylococcus aureus ATCC BAA-42. 5 microliter of bacteria solution (10^6 CFU/ml level bacterium amount) was added into 10 ml culture solution containing 1% peptone, 1% NaCl, 0.5% yeast extract, 0.5% glucose and 0.1% K2HPO4, total of 8 groups were prepared. The first group as control was added 0.3 M NaCl+50 mM boric acid buffer fluid by the same volume as that of antibiosis polypeptide liquid added in any experimental groups, the second group was added penicillin G sodium by 5 μg/ml, PMC-SA1, PMC-SA2, PMC-SA3, PMC-SA4, PMC-SE and PMC-PA were added in the other experimental groups with preservative fluid being 0.3 M NaCl+50 mM boric acid buffer fluid by 5 ug/ml.
(§5) The solution of above groups was put into 100 ml conical flask, 200 rpm, grew at 37° C. 100 μl was sampled per hour, and added onto 96-pore ELISA plate and measured bacteria grown cloudiness by spectrophotometer (A595 nm) color comparison. The bacteria growth curve was drawn up to compare the bacteriostasis efficacy of antibiosis polypeptide.

[14] = system: methicillin-resistant Staphylococcus aureus (ATCC BAA-42); test: Transmission electron microscope observation of bactericidal effect; type: cell-based; details: oxacillin 500 μg/ml, […]
Procedure: Transmission Electron Microscope Observations of the Bactericidal Effect of the Novel Antibiotic PMC-SA1 on Methicillin-Resistant Staphylococcus aureus (ATCC BAA-42) (Dyed by 1% Phospho-Wolframic Acid, Magnified by 25,000 Fold)
Culture solution: 1% tryptone, 1% NaCl, 0.5% yeast extract, 0.5% glucose, 0.1% K2HPO4.
Con: control group, the bacterium was added to the above culture solution and proper amount of 0.3 M NaCl+50 mM boric acid buffer solution, 200 rpm, grew at 37° C. for 2 hours, and the bacterial appearance was still regular;
PMC: the bacterium was added to the above culture solution with 10 μg/ml PMC-SA1 for 0.5 hours.

[15] = system: Pseudomonas aeruginosa Standard Strain (ATCC 27853); test: Bacteria growth curve (A595 nm cloudiness), Pseudomonas aeruginosa; type: cell-based; details: drug 5 μg/ml, 37° C., A595 nm per hour
Procedure: The experimental bacterium was Pseudomonas aeruginosa Standard Strain (ATCC 27853) purchased from the Center for General Microorganism of the Administration (CGMCC). 5 microliter bacteria solution (10^6 CFU/ml level bacterium amount) was added into 10 ml MH culture solution. Seven groups are prepared. 0.3 M NaCl+50 mM boric acid buffer fluid which amount was identical to amount of antibiosis polypeptide liquid in the experimental group was added as control in the first group, 5 μg/ml wild-type colicin Ia was added in the second group, 5 μg/ml PMC-SA1 was added in the third group, and 5 μg/ml PMC-PA was added in the fourth group.
as §5, with “Liquid in the” for “The solution of”, “96-hole Elisa Plate to measure” for “96-pore ELISA plate and measured”

[16] = system: Multiple-drug resistance Pseudomonas aeruginosa (clinical separated strain 13280); test: In vivo protection of mice infected by multiple-drug resistance Pseudomonas aeruginosa; set-up: species or system Kungming mice; details: 5 mg/kg intravenous, fatal dose i.p.
Source text: (1) Drugs • PMC-PA, piperacillin, amikacin, ceftazidime, levofloxacin.
Multiple-drug resistance Pseudomonas aeruginosa (clinical separated strain 13280, isolated by laboratory bacteria room of West China Hospital)
Kungming mice (n=60), half male and half female, weighing 15-20 g were given intraperitoneal injection of multiple-drug resistance Pseudomonas aeruginosa, therein PMC-PA, piperacillin, amikacin, ceftazidime and levofloxacin experimental group were set respectively as 10 mice per group, while the control group was set as 10 mice per group. After given intraperitoneal injection of fatal dose of the bacterium, the mice in drug experimental groups respectively were given an intravenous injection of one kind of above drugs, the results were observed per 24 hours for continuous 10 days. The positive result was mouse's death.

Molecule: CC1(C)S[C@@H]2[C@H](NC(=O)[C@H](N)c3ccccc3)C(=O)N2[C@H]1C(=O)[O-].[Na+] [Ampicillin, Ampicillin Sodium]
- MIC50 (Enterococcus): 0.5 mg/L
- MIC90 (Enterococcus): 16 mg/L
- Scope of MIC (Enterococcus): 0.25 to 16 mg/L
- MIC (Enterococcus ATCC 700802 [1]): 2.5 mg/L
- MIC50 [2]: 0.03 mg/L
- MIC90 [2]: 0.25 mg/L
- MIC50 (Baumanii): >128 mg/L
- MIC90 (Baumanii): >128 mg/L
- MIC50 [3]: 16 mg/L
- MIC90 [3]: 32 mg/L
- Scope of MIC [3]: 0.06 to 64 mg/L
- MIC50 (E. coli): >128 mg/L
- MIC90 (E. coli): >128 mg/L
- MIC50 [4]: 16 mg/L
- MIC90 [4]: 64 mg/L
- Scope of MIC [4]: 0.06 to 64 mg/L
- MIC50 [5]: 0.25 mg/L
- MIC90 [5]: 1 mg/L
- Scope of MIC [5]: <0.015-0.025 ^ mg/L
- ED50 [6]: 14.05 mg/kg
- ED50 [7]: 25.41 mg/kg
- ED50 (E. coli 02-1-65 [8]): >32 mg/kg
- ED50 (Enterococcus ATCC 700802 [9]): 3.00 mg/kg
- MIC [10]: 1.5 mg/L
- MIC [11]: 16 mg/L
- MIC (E. coli 02-1-65 [12]): >128 mg/L

Molecule: Cc1onc(-c2ccccc2)c1C(=O)N[C@@H]1C(=O)N2[C@@H]1SC(C)(C)[C@@H]2C(=O)[O-].[Na+] [Oxacillin, Oxacillin Sodium]
- MIC50 (Enterococcus): 16 mg/L
- MIC50 [2]: 0.03 mg/L
- MIC90 [2]: 0.125 mg/L
- Scope of MIC [2]: <0.125-0.25 ^ mg/L
- MIC50 [4]: 64 mg/L
- MIC50 [5]: 0.125 mg/L
- MIC90 [5]: 0.125 mg/L
- Scope of MIC [5]: <0.015-0.25 ^ mg/L
- bacteriostasis effect on growth of methicillin-resistant Staphylococcus aureus (bacteria growth curve) [13]: can hardly be restrained
- bactericidal effect, bacterial appearance under transmission electron microscope [14]: the colour as well as appearance of the bacterium had changed, but the thallus was still integrated
- bactericidal effect, bacterial appearance under transmission electron microscope ([14]; listed as oxacillin): the appearance of bacterium had changed, but thallus were still integrative

B1: wild-type colicin Ia: wild-type bacterial toxin colicin Ia secreted by E. coli (protein, UniProt P06716 1-626, looked up)
Colicin-Ia: MSDPVRITNPGAESLGYDSDGHEIMAVDIYVNPPRVDVFHGTPPAWSSFGNKTIWGGNEWVDDSPTRSDIEKRDKEITAYKNTLSAQQKENENKRTEAGKRLSAAIAAREKDENTLKTLRAGNADAADITRQEFRLLQAELREYGFRTEIAGYDALRLHTESRMLFADADSLRISPREARSLIEQAEKRQKDAQNADKKAADMLAEYERRKGILDTRLSELEKNGGAALAVLDAQQARLLGQQTRNDRAISEARNKLSSVTESLNTARNALTRAEQQLTQQKNTPDGKTIVSPEKFPGRSSTNHSIVVSGDPRFAGTIKITTSAVIDNRANLNYLLSHSGLDYKRNILNDRNPVVTEDVEGDKKIYNAEVAEWDKLRQRLLDARNKITSAESAVNSARNNLSARTNEQKHANDALNALLKEKENIRNQLSGINQKIAEEKRKQDELKATKDAINFTTEFLKSVSEKYGAKAEQLAREMAGQAKGKKIRNVEEALKTYEKYRADINKKINAKDRAAIAAALESVKLSDISSNLNRFSRGLGYAGKFTSLADWITEFGKAVRTENWRPLFVKTETIIAGNAATALVALVFSILTGSALGIIGYGLLMAVTGALIDESLVEKANKFWGI
- growth of Pseudomonas aeruginosa (bacteria growth curve) [15]: can not be effectively restrained

B2: PMC-PA: Staphylococcus aureus pheromone AgrD I connected to N-terminus of allosteric colicin Ia′; SEQ ID NO. 23; plasmid pBHC-PA (protein)
chain: YSTCDFIMSDPVRITNPAAESLGYDSDGREIMGVDIYLNPPRVDVFKGTPPAWSSFGNKTIWGGNEWVDDSPTRSDIEKRDKEITAYKNTLSAQQKENENKRTEAGKRLSAAIAAREKDENTLKTLRAGNADAADITRQEFRLLQAELREYGFRTEIAGYDALRLHTESRMLFADADSLRISPREARSLIEQAEKRQKDAQNADKKAADMLAEYERRKGILDTRLSELEKNGGAALAVLDAQQARLLGQQTRNDRAISEARNKLSSVTESLNTARNALTRAEQQLTQQKNTPDGKTIVSPEKFPGRSSTNHSIVVSGDPRFAGTIKITTSAVIDNRANLNYLLSHSGLDYKRNILNDRNPVVTEDVEGDKKIYNAEVAEWDKLRQRLLDARNKITSAESAVNSARNNLSARTNEQKHANDALNALLKEKENIRNQLSGINQKIAEEKRKQDELKATKDAINFTTEFLKSVSEKYGAKAEQLAREMAGQAKGKKIRNVEEALKTYEKYRADINKKINAKDRAAIAAALESVKLSDISSNLNRFSRGLGYAGKFTSLADWITEFGKAVRTENWRPLFVKTETIIAGNAATALVALVFSILTGSALGIIGYGLLMAVTGALIDESLVEKANKFWGI
modifications: The peptide of PMC-SA
notes: Staphylococcus aureus pheromone AgrD I connected to N-terminus of allosteric colicin Ia′; 23; plasmid pBHC-PA
- survival rate of mice in 10 days [16]: 100%
- growth of Pseudomonas aeruginosa (bacteria growth curve) [15]: completely restrained
- growth of Pseudomonas aeruginosa (bacteria growth curve) ([15]; listed as SEQ ID NO. 23): has antibacterial effect on Pseudomonas aeruginosa
- bacteriostasis effect on growth of methicillin-resistant Staphylococcus aureus (bacteria growth curve) [13]: the worst
